Laboratory results taken from ChEMBL document CHEMBL1157712, “Hit to lead account of the discovery of bisbenzamide and related ureidobenzamide inhibitors of Rho kinase” (J Med Chem, 2010).
Values after ≈ are worked out from the molar mass of the structure shown.

Key:
[1] = biological target: Cyclin-dependent kinase 2 (Homo sapiens) (UniProt P24941); assay: Inhibition of CDK2 at 3 uM relative to control; values are per cent of control
[2] = biological target: Serine/threonine-protein kinase Nek2 (Homo sapiens) (UniProt P51955); assay: Inhibition of NEK2a at 3 uM relative to control; values are per cent of control
[3] = biological target: Glycogen synthase kinase-3 beta (Homo sapiens) (UniProt P49841); assay: Inhibition of GSK3-beta at 3 uM relative to control; values are per cent of control
[4] = biological target: T1, Serine/threonine-protein kinase N2 (Homo sapiens, UniProt Q16513)
[5] = biological target: MAP kinase-interacting serine/threonine-protein kinase 1 (Homo sapiens) (UniProt Q9BUB5); assay: Inhibition of MNK1 at 3 uM relative to control; values are per cent of control
[6] = biological target: MAP kinase-interacting serine/threonine-protein kinase 2 (Homo sapiens) (UniProt Q9HBH9); assay: Inhibition of MNK2 at 3 uM relative to control; values are per cent of control
[7] = biological target: [Pyruvate dehydrogenase (acetyl-transferring)] kinase isozyme 1, mitochondrial (Homo sapiens) (UniProt Q15118); assay: Inhibition of PDK1 at 3 uM relative to control; values are per cent of control
[8] = biological target: Serine/threonine-protein kinase Nek7 (Homo sapiens) (UniProt Q8TDX7); assay: Inhibition of NEK7 at 3 uM relative to control; values are per cent of control
[9] = biological target: Tyrosine-protein kinase CSK (Homo sapiens) (UniProt P41240); assay: Inhibition of CSK at 3 uM relative to control; values are per cent of control
[10] = biological target: Eukaryotic elongation factor 2 kinase (Homo sapiens) (UniProt O00418); assay: Inhibition of EF2K at 3 uM relative to control; values are per cent of control
[11] = Inhibition of PKA at 3 uM relative to control; values are per cent of control
[12] = biological target: Serine/threonine-protein kinase Chk2 (Homo sapiens) (UniProt O96017); assay: Inhibition of CHK2 at 3 uM relative to control; values are per cent of control
[13] = Inhibition of CK2 at 3 uM relative to control; values are per cent of control
[14] = biological target: Ribosomal protein S6 kinase beta-1 (Homo sapiens) (UniProt P23443); assay: Inhibition of S6K1 at 3 uM relative to control; values are per cent of control
[15] = biological target: Serine/threonine-protein kinase pim-2 (Homo sapiens, UniProt Q9P1W9); assay: Inhibition of PIM2 at 3 uM relative to control; values are per cent of control
[16] = biological target: T1, Serine/threonine-protein kinase N2; assay: Inhibition of PRK2; values are per cent of control
[17] = biological target: Ribosomal protein S6 kinase alpha-3 (Homo sapiens) (UniProt P51812); assay: Inhibition of MAPKAPK1b at 3 uM relative to control; values are per cent of control
[18] = biological target: Dual specificity tyrosine-phosphorylation-regulated kinase 1A (Homo sapiens) (UniProt Q13627); details: 3 to 6 uM
Description: Inhibition of DYRK1A at 3 to 6 uM relative to control

[19] = biological target: Cytochrome P450 2C9 (Homo sapiens, UniProt P11712); assay: Inhibition of human CYP2C9 by fluorescence assay; assay type: ADME
[20] = Permeability from basolateral to apical side in human Caco-2 cells; assay type: ADME, cell-based; details: read-out: permeability
[21] = biological target: Serine/threonine-protein kinase Nek2 (Homo sapiens) (UniProt P51955); details: 3 to 6 uM
Description: Inhibition of NEK2a at 3 to 6 uM relative to control

[22] = biological target: Cytochrome P450 2D6 (Homo sapiens, UniProt P10635); assay: Inhibition of human CYP2D6 by fluorescence assay; assay type: ADME
[23] = Solubility at pH 7.4; assay type: physicochemical; details: buffer
[24] = biological target: Tyrosine-protein kinase CSK (Homo sapiens) (UniProt P41240); details: 3 to 6 uM
Description: Inhibition of CSK at 3 to 6 uM relative to control

[25] = biological target: Ribosomal protein S6 kinase alpha-5 (Homo sapiens) (UniProt O75582); details: 3 to 6 uM
Description: Inhibition of MSK1 at 3 to 6 uM relative to control

[26] = biological target: Mitogen-activated protein kinase 14 (Homo sapiens) (UniProt Q16539); details: 3 to 6 uM
Description: Inhibition of p38a at 3 to 6 uM relative to control

[27] = biological target: Vascular endothelial growth factor receptor 1 (Homo sapiens, UniProt P17948); assay: Inhibition of VEGFR1
[28] = biological target: Mitogen-activated protein kinase 8 (Homo sapiens) (UniProt P45983); details: 3 to 6 uM
Description: Inhibition of JNK1a1 at 3 to 6 uM relative to control

[29] = biological target: Myotonin-protein kinase (Homo sapiens) (UniProt Q09013); details: 3 to 6 uM
Description: Inhibition of DMPK at 3 to 6 uM relative to control

[30] = biological target: Death-associated protein kinase 1 (Homo sapiens) (UniProt P53355); details: 3 to 6 uM
Description: Inhibition of DAPK1 at 3 to 6 uM relative to control

[31] = biological target: Casein kinase I isoform alpha (Homo sapiens) (UniProt P48729); details: 3 to 6 uM
Description: Inhibition of CK1 at 3 to 6 uM relative to control

[32] = biological target: Voltage-gated inwardly rectifying potassium channel KCNH2 (Homo sapiens, UniProt Q12809); assay: Inhibition of human ERG potassium channel up to 70 uM
[33] = Metabolic stability in human liver microsomes assessed as half life; assay type: ADME, Microsome
[34] = biological target: Mitogen-activated protein kinase 1 (Homo sapiens) (UniProt P28482); details: 3 to 6 uM
Description: Inhibition of MAPK2 at 3 to 6 uM relative to control

[35] = biological target: Mitogen-activated protein kinase 15 (Homo sapiens) (UniProt Q8TD08); details: 3 to 6 uM
Description: Inhibition of ERK8 at 3 to 6 uM relative to control

[36] = biological target: Serine/threonine-protein kinase Chk2 (Homo sapiens) (UniProt O96017); details: 3 to 6 uM
Description: Inhibition of CHK2 at 3 to 6 uM relative to control

[37] = biological target: Cyclin-dependent kinase 2 (Homo sapiens) (UniProt P24941); details: 3 to 6 uM
Description: Inhibition of CDK2 at 3 to 6 uM relative to control

[38] = biological target: Tyrosine-protein kinase ITK/TSK (Homo sapiens, UniProt Q08881); assay: Inhibition of ITK
[39] = biological target: Mitogen-activated protein kinase kinase kinase 14 (Homo sapiens) (UniProt Q99558); details: 3 to 6 uM
Description: Inhibition of NIK at 3 to 6 uM relative to control

[40] = biological target: Dual specificity mitogen-activated protein kinase kinase 1 (Homo sapiens) (UniProt Q02750); details: 3 to 6 uM
Description: Inhibition of MKK1 at 3 to 6 uM relative to control

Sequence of Tyrosine-protein kinase CSK (Homo sapiens) (P41240 2-450 limits assumed): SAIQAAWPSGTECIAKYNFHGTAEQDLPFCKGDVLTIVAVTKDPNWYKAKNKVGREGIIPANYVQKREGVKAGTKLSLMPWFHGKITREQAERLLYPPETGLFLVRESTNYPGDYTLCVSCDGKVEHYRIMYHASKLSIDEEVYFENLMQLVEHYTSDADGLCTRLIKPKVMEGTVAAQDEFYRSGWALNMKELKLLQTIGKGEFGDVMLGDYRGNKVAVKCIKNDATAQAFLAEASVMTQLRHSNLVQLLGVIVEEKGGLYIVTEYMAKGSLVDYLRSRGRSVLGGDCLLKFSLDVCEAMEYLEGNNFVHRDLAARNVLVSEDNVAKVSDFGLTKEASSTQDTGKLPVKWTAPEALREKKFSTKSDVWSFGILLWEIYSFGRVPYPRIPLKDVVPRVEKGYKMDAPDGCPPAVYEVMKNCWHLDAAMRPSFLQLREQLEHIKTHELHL
Sequence of Serine/threonine-protein kinase Chk2 (Homo sapiens) (O96017 whole entry): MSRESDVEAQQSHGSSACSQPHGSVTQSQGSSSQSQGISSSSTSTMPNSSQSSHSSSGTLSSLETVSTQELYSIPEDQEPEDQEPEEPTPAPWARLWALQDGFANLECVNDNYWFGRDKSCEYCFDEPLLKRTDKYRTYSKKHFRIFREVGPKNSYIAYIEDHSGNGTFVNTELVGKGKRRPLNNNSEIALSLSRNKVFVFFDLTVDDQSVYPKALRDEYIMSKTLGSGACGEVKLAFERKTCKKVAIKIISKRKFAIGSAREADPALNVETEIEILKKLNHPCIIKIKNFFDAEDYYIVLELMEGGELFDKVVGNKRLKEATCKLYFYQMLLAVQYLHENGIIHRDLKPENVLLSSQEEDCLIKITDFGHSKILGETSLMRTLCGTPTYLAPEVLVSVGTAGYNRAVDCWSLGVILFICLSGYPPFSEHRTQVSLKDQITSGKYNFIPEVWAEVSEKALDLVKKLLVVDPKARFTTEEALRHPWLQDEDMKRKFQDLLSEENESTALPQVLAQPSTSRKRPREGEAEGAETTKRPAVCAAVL
Sequence of Serine/threonine-protein kinase Nek2 (Homo sapiens) (P51955 whole entry): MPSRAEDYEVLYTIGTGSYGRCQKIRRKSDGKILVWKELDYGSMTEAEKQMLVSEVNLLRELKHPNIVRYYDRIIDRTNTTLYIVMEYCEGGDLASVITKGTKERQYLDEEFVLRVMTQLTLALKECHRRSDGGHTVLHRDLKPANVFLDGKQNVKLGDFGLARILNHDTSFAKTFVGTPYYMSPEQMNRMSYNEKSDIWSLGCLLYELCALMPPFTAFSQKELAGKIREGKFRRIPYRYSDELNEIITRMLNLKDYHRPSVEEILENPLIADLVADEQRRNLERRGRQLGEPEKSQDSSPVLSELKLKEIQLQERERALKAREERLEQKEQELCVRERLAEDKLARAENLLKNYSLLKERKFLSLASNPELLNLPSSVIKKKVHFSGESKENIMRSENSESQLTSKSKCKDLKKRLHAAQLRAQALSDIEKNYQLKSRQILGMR
Sequence of Death-associated protein kinase 1 (Homo sapiens) (P53355 whole entry, looked up, canonical isoform): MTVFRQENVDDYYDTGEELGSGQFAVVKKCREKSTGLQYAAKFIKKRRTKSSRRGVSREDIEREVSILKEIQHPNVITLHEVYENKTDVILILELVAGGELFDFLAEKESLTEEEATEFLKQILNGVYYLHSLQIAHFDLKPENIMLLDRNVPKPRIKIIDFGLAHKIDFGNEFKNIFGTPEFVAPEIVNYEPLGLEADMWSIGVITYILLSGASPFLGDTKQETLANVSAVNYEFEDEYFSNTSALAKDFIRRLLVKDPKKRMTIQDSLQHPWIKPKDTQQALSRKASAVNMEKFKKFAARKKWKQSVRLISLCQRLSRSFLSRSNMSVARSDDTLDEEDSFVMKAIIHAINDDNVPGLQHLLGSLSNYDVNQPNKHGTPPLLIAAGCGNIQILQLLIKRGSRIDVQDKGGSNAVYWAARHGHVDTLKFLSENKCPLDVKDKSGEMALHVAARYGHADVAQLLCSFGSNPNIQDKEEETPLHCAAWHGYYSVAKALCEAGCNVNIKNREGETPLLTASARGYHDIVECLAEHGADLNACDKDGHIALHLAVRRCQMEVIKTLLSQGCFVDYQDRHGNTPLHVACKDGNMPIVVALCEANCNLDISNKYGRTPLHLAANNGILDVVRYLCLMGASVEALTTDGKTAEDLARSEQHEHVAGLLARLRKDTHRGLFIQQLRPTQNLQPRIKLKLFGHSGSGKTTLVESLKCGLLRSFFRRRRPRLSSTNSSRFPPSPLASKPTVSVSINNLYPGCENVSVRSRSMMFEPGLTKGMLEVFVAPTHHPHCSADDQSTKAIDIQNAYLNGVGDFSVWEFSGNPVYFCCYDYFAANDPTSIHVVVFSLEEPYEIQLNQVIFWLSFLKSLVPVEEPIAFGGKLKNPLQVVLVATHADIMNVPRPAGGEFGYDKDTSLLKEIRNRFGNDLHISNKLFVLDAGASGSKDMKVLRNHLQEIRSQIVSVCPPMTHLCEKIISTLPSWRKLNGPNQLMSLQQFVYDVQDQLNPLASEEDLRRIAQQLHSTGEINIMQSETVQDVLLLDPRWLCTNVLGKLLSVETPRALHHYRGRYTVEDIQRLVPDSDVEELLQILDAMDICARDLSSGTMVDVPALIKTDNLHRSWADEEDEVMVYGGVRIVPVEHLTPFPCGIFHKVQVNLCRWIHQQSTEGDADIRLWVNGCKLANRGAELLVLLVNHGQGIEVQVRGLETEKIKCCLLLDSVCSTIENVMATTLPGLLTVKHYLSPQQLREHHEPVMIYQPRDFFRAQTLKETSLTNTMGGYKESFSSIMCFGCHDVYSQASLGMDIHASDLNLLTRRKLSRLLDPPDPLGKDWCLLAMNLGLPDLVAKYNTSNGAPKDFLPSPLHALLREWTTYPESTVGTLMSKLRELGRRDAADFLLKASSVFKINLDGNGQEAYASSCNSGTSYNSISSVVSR
Sequence of MAP kinase-interacting serine/threonine-protein kinase 2 (Homo sapiens) (Q9HBH9 whole entry, looked up): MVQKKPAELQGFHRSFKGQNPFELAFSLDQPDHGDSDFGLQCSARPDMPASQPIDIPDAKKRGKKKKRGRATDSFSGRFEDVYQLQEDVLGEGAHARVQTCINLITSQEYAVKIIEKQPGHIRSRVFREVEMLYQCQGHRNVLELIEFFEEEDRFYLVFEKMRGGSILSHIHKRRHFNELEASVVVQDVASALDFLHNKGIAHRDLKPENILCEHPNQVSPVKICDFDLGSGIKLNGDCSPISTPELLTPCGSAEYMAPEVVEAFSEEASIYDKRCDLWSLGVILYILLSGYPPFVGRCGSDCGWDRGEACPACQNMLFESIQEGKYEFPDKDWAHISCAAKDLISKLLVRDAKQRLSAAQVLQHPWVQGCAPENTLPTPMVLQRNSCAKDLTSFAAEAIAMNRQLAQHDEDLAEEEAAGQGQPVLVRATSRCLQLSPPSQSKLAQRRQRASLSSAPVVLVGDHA
Sequence of Mitogen-activated protein kinase 1 (Homo sapiens) (P28482 whole entry): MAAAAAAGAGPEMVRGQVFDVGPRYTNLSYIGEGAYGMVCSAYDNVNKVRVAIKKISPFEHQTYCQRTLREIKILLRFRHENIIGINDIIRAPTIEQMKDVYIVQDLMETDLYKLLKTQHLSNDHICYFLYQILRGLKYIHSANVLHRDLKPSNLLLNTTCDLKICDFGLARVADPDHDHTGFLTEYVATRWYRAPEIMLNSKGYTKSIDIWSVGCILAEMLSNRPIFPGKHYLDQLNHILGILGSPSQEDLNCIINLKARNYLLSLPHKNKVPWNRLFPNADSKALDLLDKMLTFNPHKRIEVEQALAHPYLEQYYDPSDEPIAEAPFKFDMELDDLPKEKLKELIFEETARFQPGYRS
Sequence of Ribosomal protein S6 kinase beta-1 (Homo sapiens) (P23443 whole entry, looked up): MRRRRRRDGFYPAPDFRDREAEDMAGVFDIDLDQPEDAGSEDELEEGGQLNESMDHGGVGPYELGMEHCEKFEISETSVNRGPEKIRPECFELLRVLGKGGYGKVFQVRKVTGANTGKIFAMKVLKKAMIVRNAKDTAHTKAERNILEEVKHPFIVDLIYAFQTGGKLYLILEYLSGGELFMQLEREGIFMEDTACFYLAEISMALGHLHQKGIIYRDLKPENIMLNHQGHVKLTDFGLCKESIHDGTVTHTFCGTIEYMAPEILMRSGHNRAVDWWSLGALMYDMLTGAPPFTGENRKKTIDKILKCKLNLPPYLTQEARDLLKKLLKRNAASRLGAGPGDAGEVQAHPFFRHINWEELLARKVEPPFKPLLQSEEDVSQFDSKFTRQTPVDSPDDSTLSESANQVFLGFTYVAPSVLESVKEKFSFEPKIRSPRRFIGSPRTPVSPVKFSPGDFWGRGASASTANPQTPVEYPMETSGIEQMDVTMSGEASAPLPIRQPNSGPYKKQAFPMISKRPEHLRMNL
Sequence of Casein kinase I isoform alpha (Homo sapiens) (P48729 2-337 limits assumed): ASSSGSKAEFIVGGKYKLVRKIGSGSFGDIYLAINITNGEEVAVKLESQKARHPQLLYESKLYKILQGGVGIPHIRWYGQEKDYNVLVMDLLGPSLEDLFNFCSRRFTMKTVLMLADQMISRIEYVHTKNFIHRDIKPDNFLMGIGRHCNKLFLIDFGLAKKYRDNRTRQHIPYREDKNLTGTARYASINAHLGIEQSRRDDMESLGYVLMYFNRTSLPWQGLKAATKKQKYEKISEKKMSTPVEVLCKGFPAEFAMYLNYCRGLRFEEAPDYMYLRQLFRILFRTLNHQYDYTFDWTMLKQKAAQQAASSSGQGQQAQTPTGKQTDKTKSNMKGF
Sequence of Mitogen-activated protein kinase 14 (Homo sapiens) (Q16539 whole entry): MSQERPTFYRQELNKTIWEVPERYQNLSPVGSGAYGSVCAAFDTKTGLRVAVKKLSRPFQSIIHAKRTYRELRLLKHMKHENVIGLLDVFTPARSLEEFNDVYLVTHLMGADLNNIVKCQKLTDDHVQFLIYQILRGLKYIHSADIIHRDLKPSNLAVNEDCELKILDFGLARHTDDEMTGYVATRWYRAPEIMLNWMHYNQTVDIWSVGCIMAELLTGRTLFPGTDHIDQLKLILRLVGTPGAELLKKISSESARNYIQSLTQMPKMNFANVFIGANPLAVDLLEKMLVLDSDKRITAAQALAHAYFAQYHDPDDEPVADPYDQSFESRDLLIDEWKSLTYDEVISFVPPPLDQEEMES

**Q.** For `NC(=O)c1ccc(NC(=O)NCc2cccc(C(=O)Nc3ccc4c(c3)CNCC4)c2)cc1`, which residual activity [1] is on record?
**A.** The residual activity was > 50%.

**Q.** And the residual activity [2]?
**A.** The residual activity was > 50%.

**Q.** And the residual activity [3]?
**A.** Its residual activity is > 50%.

**Q.** And the IC50 [4]?
**A.** Its IC50 is 0.77 µM.

**Q.** What about the residual activity [5] of the same compound?
**A.** Its residual activity is > 50%.

**Q.** And the residual activity [6]?
**A.** Its residual activity is > 50%.

**Q.** And the residual activity [7]?
**A.** Its residual activity is > 50%.

**Q.** What about the residual activity [8] of the same compound?
**A.** Its residual activity is > 50%.

**Q.** And the residual activity [9]?
**A.** The residual activity was > 50%.

**Q.** What about the residual activity [10] of the same compound?
**A.** Its residual activity is > 50%.

**Q.** What about the residual activity [11] of the same compound?
**A.** The residual activity was > 50%.

**Q.** What about the residual activity [12] of the same compound?
**A.** The residual activity was > 50%.

**Q.** And the residual activity [13]?
**A.** Its residual activity is > 50%.

**Q.** What about the residual activity [14] of the same compound?
**A.** The residual activity was > 50%.

**Q.** What about the residual activity [15] of the same compound?
**A.** Its residual activity is > 50%.

**Q.** What about the residual activity [16] of the same compound?
**A.** The residual activity was 33%.

**Q.** And the residual activity [17]?
**A.** Its residual activity is > 50%.

**Q.** Which residual activity [18] does the source give for `COc1ccc(C(=O)NCc2cccc(C(=O)Nc3ccc4c(c3)CNCC4)c2)cc1OC` here?
**A.** The residual activity was > 50%.

**Q.** What about the IC50 [19] of the same compound?
**A.** Its IC50 is > 30 µM.

**Q.** And the Papp B→A [20]?
**A.** The Papp B→A was 5.4 ×10⁻⁶ cm/s.

**Q.** What about the residual activity [21] of the same compound?
**A.** The residual activity was > 50%.

**Q.** What about the IC50 [22] of the same compound?
**A.** The IC50 was > 30 µM.

**Q.** What about the solubility [23] of the same compound?
**A.** The solubility was 49 µg/mL (≈ 110 µM).

**Q.** What about the residual activity [24] of the same compound?
**A.** The residual activity was > 50%.

**Q.** And the residual activity [25]?
**A.** Its residual activity is > 50%.

**Q.** And the residual activity [26]?
**A.** Its residual activity is > 50%.

**Q.** And the IC50 [27]?
**A.** Its IC50 is > 10 µM.

**Q.** And the residual activity [28]?
**A.** Its residual activity is > 50%.

**Q.** And the residual activity [29]?
**A.** Its residual activity is > 50%.

**Q.** What about the residual activity [30] of the same compound?
**A.** The residual activity was > 50%.

**Q.** What about the residual activity [31] of the same compound?
**A.** Its residual activity is > 50%.

**Q.** And the “inhibition (INH)” value [32]?
**A.** Its value is “Not Active”.

**Q.** And the half-life [33]?
**A.** The half-life was 2.43 h.

**Q.** What about the residual activity [34] of the same compound?
**A.** Its residual activity is > 50%.

**Q.** And the residual activity [35]?
**A.** Its residual activity is > 50%.

**Q.** What about the residual activity [36] of the same compound?
**A.** Its residual activity is > 50%.

**Q.** What about the residual activity [37] of the same compound?
**A.** The residual activity was > 50%.

**Q.** And the IC50 [38]?
**A.** Its IC50 is > 10 µM.

**Q.** What about the residual activity [39] of the same compound?
**A.** Its residual activity is > 50%.

**Q.** What about the residual activity [40] of the same compound?
**A.** The residual activity was > 50%.
